Values joined by “and” are separate entries in the source; they are usually repeats but may differ in a detail not shown here. Identical values can stand only once.
Tests used:
[1] = renal extraction; cited from earlier work
[2] = Percentage injected dose in urine, voided at 30 and 180 min; settings: for Percentage of injected dose in urine: individual patients 1–8; for Percentage of injected dose in urine, mean ± SD: mean ± SD of 8 subjects
[3] = mean ± SD, subjects with chronic kidney disease
[4] = normal renal function; cited from earlier work
[5] = mean of subjects with reduced renal function
Red cell = settings: mean ± SD of 8 subjects with chronic kidney disease
Plasma protein binding = settings: mean ± SD of 8 subjects with chronic kidney disease

Percentage of injected dose in urine, mean ± SD ([2]; 30 min after injection) [%] | Percentage of injected dose in urine, mean ± SD ([2]; 180 min (3 h) after injection) | Percentage of injected dose in urine, mean ± SD ([2]; 180 min (3 h) after injection, listed as OIH) [%] | Relative uptake in the left kidney [3] | Mean plasma clearance (not normalised to body surface) [5] [mL/min] | RBC (%) (red cell uptake), mean ± SD (Red cell) | RBC (%) (red cell uptake), mean ± SD (Red cell; listed as OIH) | PPB (%), mean ± SD (Plasma protein binding) [%] | Structure (SMILES) | Extraction fraction [1] | Percentage of injected dose in urine ([2]; 30 min after injection) | Percentage of injected dose in urine ([2]; 180 min after injection) | Normal plasma clearance [4] [mL/min]
 |  |  |  |  |  |  |  | O=C([O-])CN(CCN(CC(=O)[O-])CC(=O)[O-])CCN(CC(=O)[O-])CC(=O)[O-].[99Tc+4] [^99mTc-DTPA, ^99mTc-diethyltriaminepentaacetic acid] | approximately 20% |  |  | 
40 ± 8 | 78% ± 11% | 78 ± 11 | 55.5% ± 8.1% | 198 | 16% ± 2% | 16 ± 2 | 71 ± 5 | O=C(O)CNC(=O)c1ccccc1[131I] [^131I-OIH, ^131I-o-iodohippuran] |  | 46% and 47% and 24% and 38% and 50% and 42% and 41% and 33% | 81% and 59% and 76% and 98% and 75% and 77% and 79% | 472 to 530
